# Measurements from the supplement of paper PMC10331698.
# ± gives the standard deviation of the averaged measurements.
# What was measured:
# Assay in all cases: level (log10 ratio to DMSO vehicle control); higher = higher biomarker level / cell amount than vehicle control
# [1] = compound: CO[Si](C)(CCC(F)(F)C(F)(F)C(F)(F)C(F)(F)C(F)(F)C(F)(F)F)OC [Dimethoxymethyl((perfluorohexyl)ethyl)silane] (in DMSO)
# Procedure: (§1)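 BioMAP Diversity Plus panel of 12 human primary cell co-culture systems (3C, 4H, LPS, SAg, BT, BF4T, BE3C, CASM3C, HDF3CGF, KF3CT, MyoF, Mphg). Compounds were added 1 h before stimulation and left for 24 h (MyoF 48 h; BT 72 h for soluble read-outs or 6 d for IgG). Biomarkers were read by ELISA, cytotoxicity by SRB, PBMC viability and proliferation by Alamar Blue. Each well value was divided by the mean of 8 DMSO control wells on the same plate and log10 transformed; duplicate blinded samples were tested at 4 concentrations.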
# [2] = compound: O=C(O)C=C(C(F)(F)F)C(F)(F)F [3,3-Bis(trifluoromethyl)-2-propenoic acid] (in DMSO)
# Procedure: as §1
# [3] = compound: O=C(O)CCC(F)(C(F)(F)F)C(F)(F)F [4,4-bis(Trifluoromethyl)-4-fluoropropanoic acid] (in DMSO)
# Procedure: as §1
# [4] = compound: CN(C(=O)C(F)(F)C(F)(F)C(F)(F)F)[Si](C)(C)C [N-Methyl-N-trimethylsilylheptafluorobutyramide] (in DMSO)
# Procedure: as §1
# [5] = compound: CCOC(=O)CC(=O)C(F)(F)C(F)(F)F [Ethyl pentafluoropropionyl acetate] (in DMSO)
# Procedure: as §1
# [6] = compound: OCCC(F)(F)C(F)(F)C(F)(F)C(F)(F)F [4:2 Fluorotelomer alcohol] (in DMSO)
# Procedure: as §1
# Perfluoroundecanoic acid = compound: O=C(O)C(F)(F)C(F)(F)C(F)(F)C(F)(F)C(F)(F)C(F)(F)C(F)(F)C(F)(F)C(F)(F)C(F)(F)F [Perfluoroundecanoic acid] (in DMSO); details: 6700 nM
# Procedure: as §1
Test System,level (log10) ([1]; 6700 nM),level (log10) ([1]; 20000 nM),level (log10) ([2]; 6700 nM),level (log10) ([2]; 20000 nM),level (log10) ([2]; 60000 nM),level (log10) ([3]; 6700 nM),level (log10) ([3]; 20000 nM),level (log10) ([3]; 60000 nM),level (log10) ([4]; 6700 nM),level (log10) ([4]; 20000 nM),level (log10) ([4]; 60000 nM),level (log10) ([5]; 6700 nM),level (log10) ([5]; 20000 nM),level (log10) ([5]; 60000 nM),level (log10) ([6]; 6700 nM),level (log10) ([6]; 20000 nM),level (log10) ([6]; 60000 nM),level (log10) (Perfluoroundecanoic acid)
3C:CCL2/MCP-1,-0.0005 ± 0.0021,0.012 ± 0.0042,0.001 ± 0.011,-0.0065 ± 0.0064,0.0015 ± 0.037,0.0005 ± 0.0092,0.0035 ± 0.012,0.0015 ± 0.0021,-0.009 ± 0.014,-0.0075 ± 0.0064,0.0005 ± 0.016,-0.012 ± 0.0042,-0.0185 ± 0.0035,0.002 ± 0.0085,-0.0545 ± 0.074,-0.0225 ± 0.044,0.032 ± 0.011,0.009 ± 0.0042
3C:CD54/ICAM-1,-0.008 ± 0.0085,0.0265 ± 0.016,-0.002 ± 0.0071,-0.018 ± 0.0071,-0.0095 ± 0.018,-0.01 ± 0.017,-0.022 ± 0.024,-0.0085 ± 0.011,-0.0045 ± 0.022,-0.014 ± 0.0042,0.015 ± 0.011,-0.0015 ± 0.012,-0.01 ± 0.016,0.0025 ± 0.022,-0.025 ± 0.018,-0.018 ± 0.017,0.006 ± 0.0042,-0.009 ± 0.0042
3C:CD62E/E-Selectin,-0.023 ± 0.0042,-0.0235 ± 0.005,-0.044 ± 0.0057,-0.081,-0.123 ± 0.026,-0.0065 ± 0.016,-0.0165 ± 0.016,-0.0085 ± 0.012,-0.0115 ± 0.015,-0.007 ± 0.0042,0.0015 ± 0.037,-0.0035 ± 0.013,-0.007 ± 0.023,0.011 ± 0.0071,-0.019 ± 0.021,-0.012 ± 0.0014,-0.0105 ± 0.0078,-0.0135 ± 0.04
3C:CD106/VCAM-1,-0.0115 ± 0.035,-0.009 ± 0.024,-0.0575 ± 0.03,-0.0805 ± 0.025,-0.157 ± 0.017,-0.0195 ± 0.018,-0.0215 ± 0.03,-0.0085 ± 0.023,-0.0245 ± 0.0021,-0.01 ± 0.016,0.0025 ± 0.012,-0.0045 ± 0.0064,-0.008 ± 0.0057,-0.015 ± 0.0071,-0.0205 ± 0.016,-0.011 ± 0.011,-0.0095 ± 0.011,-0.001 ± 0.044
3C:CD141/Thrombomodulin,-0.0035 ± 0.0021,-0.0275 ± 0.025,0.023 ± 0.0057,0.0025 ± 0.00071,0.0215 ± 0.037,-0.035 ± 0.082,-0.021 ± 0.062,-0.0435 ± 0.069,-0.024 ± 0.016,-0.022 ± 0.014,-0.0115 ± 0.0092,-0.013 ± 0.0099,-0.0185 ± 0.021,-0.0455 ± 0.00071,-0.0175 ± 0.013,-0.001 ± 0.0085,-0.0005 ± 0.019,-0.023 ± 0.047
3C:CD142/Tissue Factor,0.015 ± 0.02,0.021 ± 0.033,0.0445 ± 0.018,-0.022 ± 0.037,-0.138 ± 0.052,0.024 ± 0.0099,0.0115 ± 0.0078,-0.002 ± 0.023,0.0195 ± 0.044,0.02 ± 0.013,0.026 ± 0.033,-0.006 ± 0.0071,-0.019 ± 0.031,-0.033,-0.016 ± 0.018,-0.04 ± 0.045,-0.0375 ± 0.00071,-0.008 ± 0.016
BE3C:Keratin 8/18,0.0155 ± 0.011,0.0075 ± 0.005,-0.001 ± 0.0014,-0.0025 ± 0.005,0.014 ± 0.031,0.011 ± 0.0028,-0.0005 ± 0.025,-0.0045 ± 0.011,-0.013 ± 0.023,0.001 ± 0.013,0.019 ± 0.0085,0.0105 ± 0.022,0.0095 ± 0.033,0.001 ± 0.0085,-0.034 ± 0.057,-0.02 ± 0.02,0.0085 ± 0.026,-0.045 ± 0.023
BE3C:MMP-1,-0.0085 ± 0.03,0.034 ± 0.033,-0.066 ± 0.0099,-0.0425 ± 0.005,0.0305 ± 0.073,0.0065 ± 0.035,0.0105 ± 0.059,0.006 ± 0.045,-0.0015 ± 0.011,-0.02 ± 0.0071,0.0295 ± 0.033,-0.01 ± 0.013,-0.023 ± 0.018,0.021 ± 0.0014,-0.023 ± 0.078,-0.023 ± 0.058,0.0145 ± 0.0064,0.135 ± 0.011
BE3C:MMP-9,-0.006 ± 0.0042,-0.017 ± 0.013,-0.0425 ± 0.005,-0.0735 ± 0.0021,-0.079 ± 0.027,0.0085 ± 0.035,-0.024 ± 0.0042,-0.003 ± 0.03,-0.023 ± 0.0042,-0.012 ± 0.0085,0.015 ± 0.02,0.006 ± 0.044,-0.0145 ± 0.033,-0.0065 ± 0.013,0.0015 ± 0.0078,-0.014 ± 0.013,0.009 ± 0.011,-0.139 ± 0.013
BE3C:PAI-I,0.009 ± 0.033,-0.0245 ± 0.023,-0.043 ± 0.0042,-0.0315 ± 0.005,-0.0085 ± 0.032,0.009 ± 0.018,-0.004 ± 0.018,0.006 ± 0.061,-0.0045 ± 0.047,-0.013 ± 0.017,-0.012 ± 0.02,0.008 ± 0.0014,-0.006 ± 0.014,0.0045 ± 0.018,-0.0355 ± 0.023,-0.03 ± 0.045,0.0365 ± 0.016,-0.292 ± 0.023
BE3C:SRB,-0.0035 ± 0.0035,-0.003 ± 0.0042,-0.005 ± 0.0042,-0.0025 ± 0.0035,0.01 ± 0.0057,0.003 ± 0.0014,-0.001 ± 0.0057,0.018 ± 0.0085,-0.006 ± 0.0057,-0.003 ± 0.0028,0 ± 0.0028,-0.002 ± 0.0042,-0.0015 ± 0.0035,0.002 ± 0.0071,-0.004,-0.001 ± 0.0014,-0.0005 ± 0.005,-0.0555 ± 0.012
BE3C:tPA,0.0005 ± 0.026,-0.026 ± 0.037,-0.16 ± 0.041,-0.166 ± 0.0042,-0.179 ± 0.073,0.02 ± 0.075,-0.001 ± 0.044,-0.025 ± 0.027,-0.018 ± 0.025,-0.0275 ± 0.0064,-0.0195 ± 0.011,-0.019 ± 0.041,-0.034 ± 0.038,-0.028 ± 0.035,-0.0115 ± 0.0035,-0.015,0.013 ± 0.016,0.003 ± 0.0028
BE3C:uPA,0.0115 ± 0.011,-0.0055 ± 0.013,-0.0205 ± 0.011,-0.015 ± 0.0099,-0.0045 ± 0.018,-0.01 ± 0.038,-0.021 ± 0.031,-0.0355 ± 0.052,0.0045 ± 0.032,-0.0105 ± 0.026,0.015 ± 0.0071,-0.0105 ± 0.013,-0.011 ± 0.013,-0.0195 ± 0.0035,-0.032 ± 0.065,-0.014 ± 0.058,0.014 ± 0.027,0.0255 ± 0.00071
CASM3C:CCL2/MCP-1,-0.013,0.02 ± 0.016,-0.03 ± 0.0028,-0.0425 ± 0.00071,-0.0465 ± 0.022,-0.016 ± 0.013,-0.016 ± 0.0085,0.0165 ± 0.039,-0.0115 ± 0.0064,-0.001 ± 0.02,0.0165 ± 0.013,-0.001 ± 0.0028,0.003 ± 0.0057,0.009 ± 0.027,-0.023 ± 0.038,-0.0055 ± 0.039,-0.008 ± 0.05,0.0065 ± 0.015
CASM3C:CD87/uPAR,0.007 ± 0.011,-0.0045 ± 0.026,-0.0235 ± 0.023,-0.029 ± 0.031,-0.031 ± 0.023,0.027 ± 0.0028,0.0265 ± 0.013,0.03 ± 0.024,-0.016 ± 0.042,-0.028 ± 0.025,-0.012 ± 0.0057,0.0015 ± 0.028,-0.013 ± 0.0057,-0.01 ± 0.017,0.0005 ± 0.023,0.007 ± 0.013,-0.003 ± 0.021,-0.0285 ± 0.0078
